{"source": "patent US20080159958A1", "about": "“DETERMINATION OF HISTAMINE-3 BIOACTIVITY” (Abbott Laboratories, priority 2006, published 2008)", "key": {"[1]": {"target": "T1, human H3 receptor (Homo sapiens, UniProt Q9Y5N1)", "T1 construct": "expressed in transfected cells", "T1 sequence (Q9Y5N1 whole entry)": "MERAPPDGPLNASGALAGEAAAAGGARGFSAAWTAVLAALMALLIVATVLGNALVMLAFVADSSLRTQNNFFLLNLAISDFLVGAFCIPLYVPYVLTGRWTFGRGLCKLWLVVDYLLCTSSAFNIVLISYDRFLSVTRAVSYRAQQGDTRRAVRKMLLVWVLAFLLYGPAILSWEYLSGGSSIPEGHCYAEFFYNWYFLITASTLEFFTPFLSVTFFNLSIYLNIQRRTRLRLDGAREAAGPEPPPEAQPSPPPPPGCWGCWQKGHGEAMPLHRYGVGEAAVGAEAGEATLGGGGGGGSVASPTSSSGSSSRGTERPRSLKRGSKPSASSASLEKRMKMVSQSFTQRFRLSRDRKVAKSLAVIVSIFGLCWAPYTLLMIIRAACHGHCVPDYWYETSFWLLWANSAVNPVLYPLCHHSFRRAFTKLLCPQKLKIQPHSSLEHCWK", "assay": "Competition binding assay with [3H]-N-α-methylhistamine, human H3 receptor", "details": "cloned human H3 receptor, cell membranes", "protocol": "Membrane preparations were incubated with [^3H]-N-α-methylhistamine (0.5-1.0 nM) in the presence or absence of increasing concentrations of ligands for H3 receptor competition binding."}, "[2]": {"tested_on": "rat 1-4 Hz EEG amplitude", "assay": "Rat cortical EEG, H1R or H3R antagonist given alone (1-4 Hz amplitude)", "type": "in vivo", "details": "rats, vs. vehicle control", "protocol": "(§1) All experiments have been approved by the Institutional Animal Care and Use Committee (IACUC) at Abbott Laboratories and are in strict accordance with the ethical guidelines for use of laboratory animals. All experiments were conducted with male adult CD-1 rats of the Sprague-Dawley strain (Charles River Laboratories, Portage, Mich.) with body weights in the range of 400-600 g. When the rats were not in the laboratory being tested, they were housed 1 per cage in a climate controlled room with 12 hour lights on, 12 hour lights off cycle and food provided ad-lib.\n(§2) For anesthesia during surgical implantation of EEG recording electrodes, rats are administered Nembutal (Abbott Laboratories) […] ip. After achieving a deep, stable plane of anesthesia, scalp hair is removed using electric clippers and the rat is placed into the ear and incisor bars of a stereotaxic instrument to immobilize the head. The scalp is disinfected with povidone iodine, and an incision is placed longitudinally along the midline of the scalp and the tissue retracted from the skull with a blunt probe. EEG recording electrodes are bilaterally implanted over the parietal (−2.0 mm anterior-posterior, 4.0 mm lateral from bregma) and frontal (+2.0 mm anterior-posterior, 3.0 mm lateral from bregma) cortices. A reference electrode was placed 11.0 mm posterior to bregma along the centerline (0.0 mm lateral). Cortical surface electrodes consist of stainless steel screws (size #90-00) soldered to a fine wire and a miniature electrical socket. To implant the electrodes, small holes are drilled (#60 bit) into the skull, taking care not to damage the dura with the drill bit. […] Once in place, the electrodes along with the miniature connector are permanently affixed to the skull with acrylic dental cement. The rats are given a 10-14 day recovery period from the surgery before experiments are conducted.\nThe EEG was recorded from rats inside sound-attenuating chambers (Med Associates Inc, St. Albans, Vt.). Before any pharmacological experiments began, implanted rats were habituated to the EEG recording chambers for 2-5 hours on 5 consecutive days. When placed into the recording chambers, a flexible cable is attached to the miniature connector implanted on the rats. This cable allows the rat unrestricted movement within the chambers during the recording session. EEG amplifiers (AM Systems, Inc., Carlsborg, Wash.) and a computer-based data acquisition system (Datawave Inc., Berthoud, Colo.) were used to acquire (256 Hz sampling rate) and analyze data. All experiments and habituation sessions were conducted during the light phase of the circadian cycle.\nDose response effects on EEG were determined for the H3R antagonist Compound 1 (0.01-1.0 mg/kg), ABT-239 (0.1-3.0 mg/kg), and thioperamide (3.0-30.0 mg/kg). […] Dose response effects on EEG were also determined for the H1 antagonist diphenhydramine (1.0-10.0 mg/kg). […] Each rat received a vehicle control treatment (placebo), and all doses of the test compounds. All treatments were administered by the intraperitoneal (i.p.) route of administration. The treatments were administered in a random order on different days with one treatment per day, and at least 2 days between treatments. This within subjects design allowed each rat to serve as its own control. EEG recordings were begun within 10 minutes after injection and recording sessions lasted for 120 minutes. The time of day for injections and subsequent recordings were between 10:00 AM and 2:00 PM.\n(§3) Assessment of cortical low frequency EEG amplitude in the 1-4 Hz band (delta) was used as an electrophysiological measure of H1R and H3R antagonist activity in rats. The average 1-4 Hz EEG amplitude in microvolts (μV) was determined for 10 second epochs using Fast Fourier Transform (FFT) analysis. To determine the average 1-4 Hz EEG amplitude for the first 60 minutes of the recording, 360-10 sec FFT analyzed epochs were averaged together. […]"}, "[3]": {"tested_on": "diphenhydramine-induced increase of rat 1-4 Hz EEG amplitude", "assay": "Rat cortical EEG, H3R antagonist co-administered with diphenhydramine (1-4 Hz amplitude)", "type": "in vivo", "details": "rats", "protocol": "as §1, §2\nThe EEG was recorded from rats inside sound-attenuating chambers (Med Associates Inc, St. Albans, Vt.). Before any pharmacological experiments began, implanted rats were habituated to the EEG recording chambers for 2-5 hours on 5 consecutive days. When placed into the recording chambers, a flexible cable is attached to the miniature connector implanted on the rats. This cable allows the rat unrestricted movement within the chambers during the recording session. […]\nas §3"}, "[4]": {"target": "rat histamine H3 receptor (Rattus norvegicus, UniProt Q9QYN8)", "sequence (Q9QYN8 whole entry)": "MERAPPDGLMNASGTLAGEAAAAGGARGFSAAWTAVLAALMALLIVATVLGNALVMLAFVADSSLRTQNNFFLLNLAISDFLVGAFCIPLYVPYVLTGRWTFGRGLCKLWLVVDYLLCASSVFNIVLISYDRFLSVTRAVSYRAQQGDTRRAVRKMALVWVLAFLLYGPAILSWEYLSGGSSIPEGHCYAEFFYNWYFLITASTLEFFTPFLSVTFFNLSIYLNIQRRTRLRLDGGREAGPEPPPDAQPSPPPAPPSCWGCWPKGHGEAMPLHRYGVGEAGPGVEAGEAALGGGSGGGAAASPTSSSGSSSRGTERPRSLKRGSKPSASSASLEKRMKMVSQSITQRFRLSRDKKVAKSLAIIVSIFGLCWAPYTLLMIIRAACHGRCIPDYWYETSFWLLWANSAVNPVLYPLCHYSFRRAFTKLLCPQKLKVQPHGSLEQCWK", "assay": "Competition binding assay with [3H]-N-α-methylhistamine, rat H3 receptor", "quoted_text": "The rat and human H3 receptor was cloned and expressed in cells, and competition binding assays carried out, according to methods previously described (see Esbenshade, et al. Journal of Pharmacology and Experimental Therapeutics, vol. 313:165-175, 2005; Esbenshade et al., Biochemical Pharmacology 68 (2004) 933-945; Krueger, et al. Journal of Pharmacology and Experimental Therapeutics, vol. 314:271-281, 2005. Membranes were prepared from C6 or HEK293 cells, expressing the rat histamine H3 receptor, by homogenization on ice in TE buffer (50 mM Tris-HCl buffer, pH 7.4, containing 5 mM EDTA), 1 mM benzamidine, 2 μg/ml aprotinin, 1 μg/ml leupeptin, and 1 μg/ml pepstatin. The homogenate was centrifuged at 40,000 g for 20 minutes at 4° C. This step was repeated, and the resulting pellet was resuspended in TE buffer. Aliquots were frozen at −70° C. until needed. On the day of assay, membranes were thawed and diluted with TE buffer.\nMembrane preparations were incubated with [^3H]-N-α-methylhistamine (0.5-1.0 nM) in the presence or absence of increasing concentrations of ligands for H3 receptor competition binding. […] Bound radiolabel was determined by liquid scintillation counting. For all of the radioligand competition binding assays, IC50 values and Hill slopes were determined by Hill transformation of the data and pKi values were determined by the Cheng-Prusoff equation."}}, "note": "Read-outs that look alike come from different tables or passages of the source.", "data": [{"smiles": "CN1C[C@H]2CCN(c3ccc(-c4ccc(-n5ncccc5=O)cc4)cc3)[C@H]2C1", "note": "[Compound 1, (3aR, 6aR)-2-[4′-(5-methyl-hexahydro-pyrrolo[3,4-b]pyrrol-1-yl)-biphenyl-4-yl]-2H-pyridazin-3-one]", "values": [{"measurement": "Ki", "setting": "[1]", "value": 1.9, "unit": "nM"}, {"measurement": "effect on average amplitude of 1-4 Hz EEG, given alone", "setting": "[2]; 1.0 mg/kg i.p., first hour after injection", "value": "lower the average amplitude of 1-4 Hz EEG"}, {"measurement": "effect on average amplitude of 1-4 Hz EEG, given alone", "setting": "[2]; 0.01-0.1 mg/kg i.p., first hour", "value": "did not produce significant lowering"}, {"measurement": "effect on diphenhydramine-induced increase of average 1-4 Hz EEG amplitude", "setting": "[3]; 0.01 mg/kg i.p. given 15 minutes before diphenhydramine 10.0 mg/kg i.p.", "value": "did not achieve statistical significance"}, {"measurement": "effect on diphenhydramine-induced increase of average 1-4 Hz EEG amplitude", "setting": "[3]; 0.03 mg/kg and 0.1 mg/kg i.p. given 15 minutes before diphenhydramine 10.0 mg/kg i.p.", "value": "significantly reduces"}, {"measurement": "Ki", "setting": "[4]", "value": 8.1, "unit": "nM"}]}, {"smiles": "S=C(NC1CCCCC1)N1CCC(c2c[nH]cn2)CC1", "note": "[Compound 3, N-cyclohexyl-4-(1H-imidazol-4-yl)piperidine-1-carbothioamide]", "values": [{"measurement": "effect on average amplitude of 1-4 Hz EEG, given alone", "setting": "[2]; 30.0 mg/kg i.p., first hour after injection", "value": "lower the average amplitude of 1-4 Hz EEG"}, {"measurement": "effect on average amplitude of 1-4 Hz EEG, given alone", "setting": "[2]; 3.0-10. mg/kg i.p., first hour", "value": "did not produce significant lowering"}, {"measurement": "effect on diphenhydramine-induced increase of average 1-4 Hz EEG amplitude", "setting": "[3]; 3.0 mg/kg i.p. given 15 minutes before diphenhydramine 10.0 mg/kg i.p.", "value": "significantly reduces"}, {"measurement": "Ki", "setting": "[4]; read-out: rat H3 Ki, cloned rat H3 receptor, C6 or HEK293 cell membranes", "value": 3.6, "unit": "nM"}]}, {"smiles": "C[C@@H]1CCCN1CCc1cc2cc(-c3ccc(C#N)cc3)ccc2o1", "note": "[Compound 2, 4-(2-[2-((R)-2-methyl-pyrrolidin-1-yl)-ethyl]-benzofuran-5-yl}-benzonitrile]", "values": [{"measurement": "effect on average amplitude of 1-4 Hz EEG, given alone", "setting": "[2]; 3.0 mg/kg i.p., first hour", "value": "trend toward a decrease"}, {"measurement": "effect on average amplitude of 1-4 Hz EEG, given alone", "setting": "[2]; 0.1-3.0 mg/kg i.p., first hour", "value": "did not produce statistically significant lowering"}, {"measurement": "effect on diphenhydramine-induced increase of average 1-4 Hz EEG amplitude", "setting": "[3]; 0.3 mg/kg i.p. given 15 minutes before diphenhydramine 10.0 mg/kg i.p.", "value": "significantly reduces"}]}, {"smiles": "CN(C)CCOC(c1ccccc1)c1ccccc1", "note": "[diphenhydramine]", "values": [{"measurement": "effect on average amplitude of 1-4 Hz EEG, given alone", "setting": "[2]; 10.0 mg/kg i.p., first hour", "value": "significantly increased"}, {"measurement": "effect on average amplitude of 1-4 Hz EEG, given alone", "setting": "[2]; 1.0-3.0 mg/kg i.p., first hour", "value": "not significantly different from vehicle control"}]}]}
